Measured values as given in patent US20250169500A1, “METHOD AND APPARATUS FOR CONTROLLING WEEDS BY POST-HARVEST TREATMENT OF WEED SEEDS” (BAYER CROPSCIENCE LP, priority 2022, published 2025).

Tested on: Palmer Amaranth
Assay: Field treatment of crop residue material with diluted indaziflam suspension concentrate at soybean harvest; Palmer Amaranth infestation in the next growing season
Type: in vivo
Conditions: about 1 g of indaziflam per hectare of spread crop residue material, applied at the expelling end of the seed pulverizer during harvest; assessed in the next growing season
Procedure: A crop of soybeans is grown infested with Palmer Amaranth. The soybean crop is grown to harvest and the Palmer amaranth is in the seed stage, just before seed drop. A combine harvester equipped with a follow-along seed pulverizer as described in WO 2009/100500 A is used to harvest the crop. The seed pulverizer is fitted with a liquid applicator at the expelling end to treat crop residue material expelled from the pulverizer with a diluted indaziflam suspension concentrate—before the expelled material touches the ground—such that the combine harvester-pulverizer deposits treated crop residue material such that the land so harvested is treated with about 1 g of indaziflam per hectare of spread crop residue material, without treating the land directly.
In the next growing season, another soybean crop has less than 10% of the volume of Palmer Amaranth compared to the present soybean harvest.

`Cc1ccc2c(c1)[C@H](Nc1nc(N)nc(C(C)F)n1)[C@@H](C)C2` (mixture of isomers) [indaziflam, 2-N-[(1R,2S)-2,3-dihydro-2,6-dimethyl-1H-inden-1-yl]-6-[(1RS)-1-fluoroethyl]-1,3,5-triazine-2,4-diamine] was tested, and the “volume of Palmer Amaranth in next season's soybean crop compared to the present soybean harvest” value was “less than 10%”.
